# Results published in patent US20100055116A1, “Methods and Compositions for Targeting c-Rel” (priority 2006, published 2010).
# Peptide text beside a SMILES is read from it. * marks the point of attachment. Cbz = O=C(OCc1ccccc1)*; CH2F = FC*
# B1: CD28RE kB site 20-mer FITC probe (dsDNA)
# DNA 1: TCTGGAATTTCTTTAAACCC
# DNA 2: GGGTTTAAAGAAATTCCAGA
# B2: CD28RE EMSA probe/unlabeled competitor (dsDNA)
# DNA 1: TCTGGAATTTCTTTAAACCC
# DNA 2: GGGTTTAAAGAAATTCCAGA
# Columns and labels:
# [1] = system: Pten-mutant and control B cells; test: Mitochondrial potential by JC-1 staining; assay type: cell-based, mouse; settings: anti-IgM treatment, within 12 hours
# Experimental: B cells were cultured to a density of 0.5−1.0×10^6 cells/ml. For each condition, 1 ml of cells was treated with the appropriate agent for the appropriate length of time as shown in FIG. 8C. Mitochondrial potential was assessed by using the fluorescent potentiometric dye JC-1 (5,5′,6,6′,-tetrachloro-1,1′,3,3′-tetraethylbenzimidazolylcarbocyanine iodide, Molecular Probe). JC-1 is a novel cationic carbocyanine dye that accumulates in mitochondria. The dye exists as a monomer at low concentrations and yields green fluorescence, similar to fluorescein. […] These characteristics make JC-1 a sensitive marker for mitochondrial membrane potential. Briefly, 0.3 ml of the cells were mixed with 0.3 ml of staining solution (complete medium containing 0.5 μg/1 ml JC-1). Cells were stained for 30 min in a 37° C. incubator (5% CO2). After staining, cells were collected at room temperature and washed once in 1×PBS. The cell pellet was then resuspended in PBS (pre-warmed to 37° C.), and JC-1 fluorescence was analyzed on a Becton-Dickinson FACS using Cell-Quest software.
# [2] = system: Pten-mutant B cells; test: Proliferation and survival assays (CFSE, propidium iodide staining) with anti-IgM; assay type: cell-based, mouse; settings: for division of Pten-mutant cells: 3 days of stimulation with BCR signal, CFSE
# Description: Pten(+/−) mice and Pten^flox/+ mice (background strain C57/BL6) were provided by Dr. Pandolfi PP (Di Cristofano et al., 1999 Science 285:2122). To generate B cell-specific Pten-deficient mice, Pten^flox/+ mice were crossed with CD19^cre/+ transgenic mice (purchased from Jackson lab). Offspring carrying CD19^cre/+ and the floxed Pten mutation on both alleles (Pten^flox/flox CD19^Cre/+), and the wild-type Pten gene (Pten^+/+ CD19^Cre/+) were used for analysis as homozygous mutant, wild-type mice, respectively. The mice were maintained under specific pathogen-free conditions in the animal colony of Weill Medical college of Cornell University. Pten^flox/flox CD19^Cre/+ mice were crossed with c-Rel-deficient mice (Tumang et al., 1998 Eur J Immunol 28:4299) to generate the double deficient mice.
# For propidium iodide staining assay, B-cells were cultured in 10 μg/ml anti-IgM or 10 μg/ml anti-CD40 or 10 μg/ml LPS. At the indicated time points, cells were collected and stained with a solution containing 50 μg/ml propidium iodide, 20 ng/ml RNase A, 0.1% Triton X-100, and 0.1% sodium citrate. Duplicate samples were then analyzed on a Becton-Dickinson FACS using Cell-Quest software, and the percentage of apoptotic cells (<2N DNA content) or S and G2/M phase cells (>2N DNA content) quantified. For ^3H-thymidine incorporation assays, B-cells were plated at 1×10^5 cells per well in 96-well U-bottomed plates and cultured in complete media containing RPMI 1640, 10% heat inactivated FCS (DeWned; Hyclone, Logan, Utah), 2 mM L-glutamine, 1 mM non-essential amino acids, 100 μg/ml, penicillin/streptomycin, and 5×10^−5 M/L^−1 mercaptoethanol at 37° C. and 5% CO2. Where indicated, cells were stimulated with 10 μg/ml goat anti-mouse IgM F(ab′)2 (anti-IgM, Jackson ImmunoResearch Laboratories), or 10 μg/ml anti-CD40 (mAb 1C 10), or 10 μg/ml LPS. Six hours prior to the indicated time points, cultures were incubated with 0.5 μCi/well thymidine (Amersham), and then harvested onto Whatman Filters to determine proliferative responses by thymidine incorporation. […]
# [3] = system: immature B cells; test: Anti-IgM induced apoptosis; assay type: cell-based, mouse; settings: 50 mM inhibitor
# Experimental: Mature and immature B cells (>95% B220+) were isolated from untreated mice or sublethally irradiated mice by complement-mediated lysis and Percoll gradient as described previously, and cultured in RPMI 1640 media containing 10% fetal calf serum (FCS) (Cellgro), 1% penicillin, 1% streptomycin (both Life Sciences BRL), and 50 uM b-mercaptoethanol (Sigma). For caspase experiments, 2×10^6/ml B cells were plated per well in 24-well polystyrene flat-bottom plates (Corning) in 1000 ul of total culture volume. […]
# The following antibodies were used for FACS analysis: anti-CD24 (HSA), anti-CD21, anti-IgD, anti-IgM, and anti-B220 (RA3-6B2), labeled with R-phycoerythrin (PE), FITC or Allophyocyanin (APC), all purchased from Pharmigen. […] Duplicate samples were then analyzed by FACS (Becton-Dickinson) using CellQuest software, and the percentage of apoptotic cells (<2N DNA content) or S and G2/M phase cells (>2N DNA content) quantified. For PIP3 assays, PIP3 levels were measured using a biotin-labeled antibody against anti-PI-3,4,5-P3 (a gift from Dr. Paul Neilsen, Echelon, Salt Lake City, Utah) and FACS following a published protocol.
# [4] = system: immature B cells; test: BCR-induced mitochondrial depolarization, JC-1 staining; assay type: cell-based, mouse; settings: 50 mM inhibitor, anti-IgM
# Experimental: Mature and immature B cells (>95% B220+) were isolated from untreated mice or sublethally irradiated mice by complement-mediated lysis and Percoll gradient as described previously, and cultured in RPMI 1640 media containing 10% fetal calf serum (FCS) (Cellgro), 1% penicillin, 1% streptomycin (both Life Sciences BRL), and 50 uM b-mercaptoethanol (Sigma). For caspase experiments, 2×10^6/ml B cells were plated per well in 24-well polystyrene flat-bottom plates (Corning) in 1000 ul of total culture volume. The following combinations of agents were added for 12 hr or 24 hr at 37° C.: 10 mg/ml of goat anti-mouse IgM F(ab)2 (anti-IgM, Jackson ImmunoResearch Laboratories), 50 mM of z-VAD-fmk, a pan-caspase inhibitor, or 50 mM of z-LEHD-fmk, a specific […], or 50 mM of z-FA-fmk, a cathepsin B inhibitor (Enzyme System Products). For the PI3K assay, 5×10^6 B cells were plated per well in 24-well polystyrene flat-bottom plates (Corning) in 2 ml final culture volume, with 10 mg/ml of goat anti-mouse IgM F(ab′)2 added for the indicated time at 37° C. […]
# Cells were cultured at a density of 0.5−1.0×10^6 cells/ml. […] The dye exists as a monomer at low concentrations and yields green fluorescence, similar to fluorescein. […] The cell pellet was then resuspended in PBS, and JC-1 fluorescence analyzed by FACS.
# [5] = target: T1, c-Rel (homodimer) (Homo sapiens, UniProt Q04864 Q04864:2-619); test: FP; 10 nM probe; FP saturated at 128 nM c-Rel; Kd said to be larger than by EMSA but no number in text; abolished by GST-IkBa; settings: tags: C-terminal His, E. coli BL-21 Lys (DE3); full-length or subdomain (not specified); chain copies: 2 stated; label: 5'-FITC
# T1 sequence: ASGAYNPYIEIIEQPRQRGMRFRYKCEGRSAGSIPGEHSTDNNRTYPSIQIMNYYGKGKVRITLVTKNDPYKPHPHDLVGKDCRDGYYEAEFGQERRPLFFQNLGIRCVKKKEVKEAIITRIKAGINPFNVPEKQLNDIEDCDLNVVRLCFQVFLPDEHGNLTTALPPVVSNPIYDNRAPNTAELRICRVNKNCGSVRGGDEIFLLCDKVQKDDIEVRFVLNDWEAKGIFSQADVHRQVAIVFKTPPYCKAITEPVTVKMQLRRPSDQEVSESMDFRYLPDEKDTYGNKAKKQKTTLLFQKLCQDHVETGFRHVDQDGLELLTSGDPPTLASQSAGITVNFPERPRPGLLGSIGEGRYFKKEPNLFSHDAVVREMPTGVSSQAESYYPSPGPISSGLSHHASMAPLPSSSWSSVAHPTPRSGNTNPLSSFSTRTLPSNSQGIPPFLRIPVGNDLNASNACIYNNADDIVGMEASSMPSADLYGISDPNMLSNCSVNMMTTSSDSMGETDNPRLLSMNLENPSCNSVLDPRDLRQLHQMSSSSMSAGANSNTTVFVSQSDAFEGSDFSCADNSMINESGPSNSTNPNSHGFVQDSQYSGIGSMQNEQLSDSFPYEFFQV
# Experimental: (§1) According to the EMSA data, the concentrations of FITC-labeled DNA probe and c-Rel protein used in FP screen assay were optimized. Initially, the fluorescently labeled probe was added in different concentrations (5 nM, 10 nM, 100 nM) while c-Rel protein concentration (2000 nM) was constant, and the reactions were incubated for 15-30 minutes at room temperature, and then transferred to the wells of 384-well plate (20 μl/well). The FP values were measured using FUSION Universal Microplate Analyzer (Perkin Elmer, PE). […] In most cases, there is an increase in FP, with FP signals saturated in the presence of 128 nM of c-Rel. The dissociation constant (Kd) calculated using this method is larger than that observed using EMSA.
# It was next investigated whether this assay could detect a known endogenous inhibitor (IkBα) of c-Rel activity. […] Recombinant GST-IkBα previously generated (final concentration is 150 nM) was added to a binding reaction consisting of 10 nM FITC-CD28RE and 100 nM c-Rel. […] Thus, this assay detected specific inhibitors that function by directly binding c-Rel protein and inducing a conformation change. Moreover, consistent with the scatter data distribution shown in FIG. 3d, z factor, one assay performance indicator, was also evaluated. […]
# [6] = target: T1, c-Rel (homodimer); test: competition; unlabeled CD28RE returns FP to basal level at 128 nM; settings: tags: C-terminal His, E. coli BL-21 Lys (DE3); full-length or subdomain (not specified); chain copies: 2 stated
# Experimental: as §1
# To exclude the possibility that non-specific interaction of c-Rel protein with DNA molecules contributes to the increase in FP value, a cold competition experiment was performed. […] However, a control DNA molecule, the unlabeled Oct1 (20 mers) in the same conditions as applied to the cold CD28RE probe, had no effect on FP value. Thus, this assay specifically and quantitatively measured interactions in the interface between c-Rel protein and CD28 RE.
molecule,measurement,setting,value
Cc1ccc(S(=O)(=O)/C=C/C#N)cc1 [Bay 11],mitochondrial depolarization,[1],mitochondrial depolarization
same,division of Pten-mutant cells,[2],completely blocked
same,cell apoptosis,[2]; propidium iodine staining,significant cell apoptosis
CC(C)C[C@H](NC(=O)[C@H](Cc1ccccc1)NC(=O)c1cnccn1)B(O)O [Velcade],mitochondrial depolarization,[1],mitochondrial depolarization
same,division of Pten-mutant cells,[2],completely blocked
CC(NC(=O)[C@H](Cc1ccccc1)NC(=O)OCc1ccccc1)C(=O)CF (stereo partly shown) [z-FA-fink],anti-IgM induced apoptosis,[3],failed to inhibit
COC(=O)CC[C@H](NC(=O)[C@H](CC(C)C)NC(=O)OCc1ccccc1)C(=O)N[C@@H](Cc1cnc[nH]1)C(=O)N[C@@H](CC(=O)OC)C(=O)CF [z-LEHD-fmk] (Cbz-LE(OMe)HD(OMe)-CH2F),BCR-induced changes in DY (mitochondrial membrane potential),[4],Neither inhibitor reversed
COC(=O)C[C@H](NC(=O)[C@H](C)NC(=O)[C@@H](NC(=O)OCc1ccccc1)C(C)C)C(=O)CF [z-VAD-fmk] (Cbz-Val-Ala-Asp(OMe)-CH2F),BCR-induced changes in DY (mitochondrial membrane potential),[4],Neither inhibitor reversed
B1,binding result,[5],binds
B2,binding result,[6],binds
